Data from patent US20020077322A1, “Protection of neurons against glutamate-induced damage in glaucoma and other conditions” (priority 2000, published 2002).

Legend:
Type in all cases: in vivo, C57/BL6 mice
retinal ganglion cells [1] = test: Intravitreal NMDA with or without co-injected WIN 55,212-2; counts of surviving cells in the retinal ganglion cell layer (Example 1)
Description: (§1) Experiments were performed on adult C57/BL6 mice of an average of 4 months, weighing 15-25 g. Animals were given food and water ad libitum. All studies were conducted in accordance with the principles and procedures outlined in the National Institute of Health (NIH) Guide for the Care and Use of Laboratory Animals.
Three sterile solutions were administered by intravitreal injection: balanced saline solution, NMDA (Sigma) and NMDA plus WIN 55,212-2 (Sigma). The NMDA solution was comprised of 320 mM NMDA in balanced saline solution (net of 160 nmol of NMDA injected per eye). The WIN solution contained 0.5 mM WIN 55,212-2 in the NMDA solution using a DMSO vehicle (less than 0.1% of solution) to carry WIN (net of 0.25 nmol of WIN injected per eye).
(§2) Intravitreal Injections Mice were anaesthetized by intraperitoneal injection of 0.017 ml/g body weight of a solution containing 1.75% tribromoethanol and 1.75% tertiary amyl alcohol. A topical application of 0.5% proparacaine hydrochloride was administered prior to intravitreal injections. A small incision was made with a 22-gauge needle in the dorsal limbus, through the conjunctiva and sclera. A Hamilton syringe was passed through this incision at a 40 to 50 degree angle to the equator to administer the solution. All eyes were injected with 0.5 μl of solution. All procedures were performed under microscopy. Occasionally this procedure produced cataracts in mice (less than 5%) due to damage to the lens with the syringe. These mice were not used in the analysis.
(§3) Tissue Preparation Flat mount preparations of the retinae and counts of cells in the retinal ganglion cell layers were performed to evaluate cell loss. Ten days after intravitreal injections, animals were euthanized by an intraperitoneal overdose injection of pentobarbital. Animals were immediately perfused with 4% paraformaldehyde, and the eyes enucleated. The retinae were dissected and mounted onto gelatinized slides, ganglion cell layer up. Several radial cuts were made at the periphery, and the surface was cleared and flattened with a fine brush (camel hair, size 0). The flat mounted retinae were immersed overnight in a solution containing 10% formaldehyde and 90% alcohol. The sections were subsequently dehydrated and stained with 0.5-1% cresyl violet and enclosed with coverslips.
Morphometric Analysis (Quantification of Cell Loss in the Retinal Ganglion Cell Layer) The ganglion cell layer was imaged at 400×and cells were counted within 70×70 um grids. […] Quandrant counts from each retina were averaged to give the value for each eye. Morphologically distinguishable glial cells and vascular endothelial cells were excluded from the cell count, but no attempt was made to distinguish between ganglion and amacrine cells. […]

retinal ganglion cells [2] = test: Topical WIN55212-2 after intravitreal NMDA; counts of surviving retinal ganglion cells (Example 2)
Description: as §1
Two sterile solutions were administered by intravitreal injection: balanced saline solution, and NMDA (Sigma). The NMDA solution was comprised of 320 mM NMDA in balanced saline solution (net of 160 nmol of NMDA injected per eye).
as §2, with “Injections:” for “Injections”, “0.5μl” for “0.5 μl”
Topical Application of cannabinoid: A topical application solution of WIN55212-2 (Sigma) was prepared in 2-hydroxypropyl-β-cyclodextrin (Sigma). This solution contained 2.4 mg of WIN55212-2 in 1 ml 2-hydroxypropyl-β-cyclodextrin.
10 μl of this WIN55212-2 solution was applied to the anterior surface of the eye. In the experiments described, it was applied three times daily on one eye only. The applications of the WIN solution began one day after the NMDA injections were made, to allow time for the surface of the eye to heal, and the topical applications were made for 9 days. Thus, while each eye received the NMDA injections, only one eye of each animal had the WIN solution applied onto it.
as §3, with “Preparation:” for “Preparation”, “The flat mounted retinae were immersed overnight in a solution containing 10% formaldehyde and 90% alcohol. The sections were subsequently dehydrated and stained with 0.5-1% cresyl violet and enclosed with coverslips.” left out
Morphometric Analysis: The ganglion cell layer was imaged at 400X and 630X and cells were counted within 120×120 μm square grids. […]

retinal ganglion cells [3] = test: Effect of cannabinoid antagonists on WIN protection of NMDA-treated retinal ganglion cells (Example 3); conditions: preliminary tests
Description: A topical application of 0.5% proparacaine hydrochloride was administered prior to intravitreal injections. A small incision was made with a 22-gauge needle in the dorsal limbus, through the conjunctiva and sclera. A Hamilton syringe was passed through this incision at a 40 to 50 degree angle to the equator to administer the solution. All eyes were injected with 0.5 μl of solution. All procedures were performed under microscopy. […] These mice were not used in the analysis.
Tissue Preparation: Flat mount preparations of the retinae and counts of cells in the retinal ganglion cell layers were performed to evaluate cell loss. Ten days after intravitreal injections, animals were euthanized by an intraperitoneal overdose injection of pentobarbital. Animals were immediately perfused with 4% paraformaldehyde, and the eyes enucleated. The retinae were dissected and mounted onto gelatinized slides, ganglion cell layer up. […]

[4] = intravitreal, 160 nmol NMDA per eye, 10 day period, vs saline eye
[5] = single intravitreal application, 0.25 nmol WIN per eye with NMDA, 10 days

With `CN[C@H](CC(=O)O)C(=O)O` [NMDA, N-methyl-D-aspartate] the “loss of retinal ganglion cells caused by NMDA” value (retinal ganglion cells [1]; [4]) was 70% and the “loss of retinal ganglion cells caused by NMDA” value (retinal ganglion cells [2]; [4]) was 70%.

`COc1ccc(C(=O)c2c(C)n(CCN3CCOCC3)c3cc(I)ccc23)cc1` [AM 630] was tested, and the “cell counts with CB2 antagonist in combination with WIN and NMDA” value (retinal ganglion cells [3]) was “same cell counts as the WIN+NMDA eye”.

With `Cc1c(C(=O)c2cccc3ccccc23)c2cccc3c2n1[C@H](CN1CCOCC1)CO3` [WIN] the “increase in number of surviving ganglion cells (NMDA+WIN vs NMDA eye)” value (retinal ganglion cells [1]; FIG. 5 left pair of bars, data taken from Example 1) was “by a factor of two”, the “diminution of NMDA-induced ganglion cell loss” value (retinal ganglion cells [1]; [5]) was 80% and the “resulting loss of ganglion cells with NMDA plus WIN” value (retinal ganglion cells [1]; [5]) was 30%. For the same molecule, the “excitotoxic damage in ganglion cell layer, photomicrographs (FIG. 4)” value (retinal ganglion cells [2]; NMDA-treated retina, unilateral topical WIN55212-2) was “ameliorated the excitotoxic damage”, the “retinal ganglion cells protected, contralateral eye (no WIN directly applied)” value (retinal ganglion cells [2]; WIN applied topically to the other eye, presumably systemic delivery) was “about 25%” and the “resulting loss of ganglion cells, NMDA plus topical WIN, treated eye” value (retinal ganglion cells [2]; topical WIN on days 2-9, 10 day period) was 30%.
